Results: patent US6518293B2, “Anti-HIV imidazolone derivatives” (Hoffmann-La Roche Inc., priority 2000, dated 2003)

How the values were obtained:
[1] = tested on: HXB2-strain of HIV in MT4 cells; assay: Antiviral assay: protection of HIV-infected MT4 cells from cell death (MTT); type: cell-based; settings: Human immunodeficiency virus 1; MT4 cells infected with HXB2-strain of HIV, MTT viability
Description: Anti-HIV antiviral activity was assessed using an adaptation of the method of Pauwels et al. {Pauwels et al., 1988, J Virol Methods 20:309-321}. The method is based on the ability of compounds to protect HIV-infected T lymphoblastoid cells (MT4 cells) from cell-death mediated by the infection. The endpoint of the assay was calculated as the concentration of compound at which the cell viability of the culture was preserved by 50% (‘50% inhibitory concentration’, IC50). The cell viability of a culture was determined by the uptake of soluble, yellow 3-[4,5-dimethylthiazol-2-yl]-2,5-diphenyltetrazolium bromide (MTT) and its reduction to a purple insoluble formazan salt. After solubilization, spectrophotometric methods were employed to measure the amount of formazan product.
MT4 cells were prepared to be in logarithmic-phase growth and a total of 2×10^6 cells infected with the HXB2-strain of HIV at a multiplicity of 0.0001 infectious units of virus per cell in a total volume of between 200-500 microlitres. The cells were incubated with virus for one h at 37° C. before removal of virus. The cells are then washed in 0.01 M phosphate buffered saline, pH 7.2 before being resuspensed in culture medium for incubation in culture with serial dilutions of test compound. The culture medium used was RPMI 1640 without phenol red, supplemented with penicillin, streptomycin, L-glutamine and 10% fetal calf serum (GM10).
Test compounds were prepared as 2 mM solutions in dimethyl sulphoxide (DMSO). Four replicate, serial 2-fold dilutions in GM10 were then prepared and 50 microlitres amounts placed in 96-well plates over a final nanomolar concentration range of 625-1.22. Fifty microlitres GM10 and 3.5×10^4 infected cells were then added to each well. Control cultures containing no cells (blank), uninfected cells (100% viability; 4 replicates) and infected cells without compound (total virus-mediated cell death; 4 replicates) were also prepared. The cultures were then incubated at 37° C. in a humidified atmosphere of 5% CO2 in air for […].
A fresh solution of 5 mg/ml MTT was prepared in 0.01 M phosphate buffered saline, pH 7.2 and 20 microlitres added to each culture. The cultures were further incubated as before for 2 h. They were then mixed by pipetting up and down and 170 microlitres of Triton X-100 in acidified isopropanol (10% v/v Triton X-100 in 1:250 mixture of concentrated HCl in isopropanol). When the formazan deposit was fully solubilized by further mixing, the absorbance (OD) of the cultures was measured at 540 nm and 690 nm wavelength (690 nm readings were used as blanks for artefacts between wells). The percent protection for each treated culture was then calculated from the equation: [formula]
The IC50 was then obtained from graph plots of percent protection versus log10 drug concentration.

HIV-1 RT = HIV-1 RT (Human immunodeficiency virus type 1 group M subtype B, UniProt P04585); assay: HIV-1 Reverse Transcriptase Assay: Inhibitor IC50 Determination; type: biochemical; settings: purified recombinant enzyme, poly(rA)/oligo(dT)16 template-primer
Description: Assay Method: HIV-1 Reverse Transcriptase Assay: Inhibitor IC50 Determination
HIV-1 RT assay was carried out in 96-well Millipore filtermat NOB50 plates using purified recombinant enzyme and a poly(rA)/oligo(dT)16 template-primer in a total volume of 50 μL. The assay constituents were 50 mM Tris/HCl, 50 mM NaCl, 1 mM EDTA, 6 mM MgCl2, 5 μM dTTP, 0.1 μCi [^3H] dTTP, 5 μg/ml poly (rA) pre annealed to 2.5 μg/ml oligo (dT)16 and a range of inhibitor concentrations in a final concentration of 10% DMSO. Reactions were initiated by adding 5 nM HIV-1 RT and after incubation at 37° C. for 30 min, they were stopped by the addition of 50 μl ice cold 20% TCA and allowed to precipitate at 4° C. for 30 min. The precipitates were collected by applying vacuum to the plate and sequentially washing with 2×200 μl of 10% TCA and 2×200 μl 70% ethanol. Finally the plates were dried and radioactivity counted in a Wallac Microbeta 1450 after the addition of 15 μl scintillation fluid per well. IC50's were calculated by plotting % inhibition versus log10 inhibitor concentrations.

| SMILES | IC50 [1] [nM] | IC50 (HIV-1 RT) [nM] |
| --- | --- | --- |
| CC(C)n1c(Sc2cc(Cl)cc(Cl)c2)c(CNCc2ccncc2)n(C)c1=O | 7 | 90 |
| CC(C)n1c(Sc2cc(Cl)cc(Cl)c2)c(COCc2ccncc2)n(C)c1=O | 4 | 171 |
| CC(C)n1c(Sc2ccccc2)c(CNCc2ccncc2)n(C)c1=O | 32 | 520 |
| CC(C)n1c(Sc2ccccc2)c(CNCc2ccccc2)n(C)c1=O | 44 | 730 |
| CC(C)n1c(Oc2cc(Cl)cc(Cl)c2)c(CNCc2ccncc2)n(C)c1=O | 108 | 2400 |
| CC(C)n1c(Sc2cc(Cl)cc(Cl)c2)c(CCc2ccccc2)n(C)c1=O | – | 1160 |
| CCC(C)Sc1c(CNCc2ccncc2)n(C)c(=O)n1C(C)C (centres unmarked) | – | 1910 |
| COc1cccc(Sc2c(CNCc3ccncc3)n(C)c(=O)n2C(C)C)c1 | – | 3340 |
| CC(C)n1c(Sc2cc(Cl)cc(Cl)c2)c(CO)n(C)c1=O | – | 10000 |
| Cn1c(COCc2ccccc2)c(Sc2cc(Cl)cc(Cl)c2)n(-c2ccccc2)c1=O | – | 10000 |
| CC(C)n1c(Sc2cc(Cl)cc(Cl)c2)c(/C=C/C#N)n(C)c1=O | – | 1920 |
| CCn1c(Cc2ccncc2)c(Sc2cc(Cl)cc(Cl)c2)n(C(C)C)c1=O | – | 649 |
| CC(C)n1c(Sc2cc(Cl)cc(Cl)c2)c(Cc2ccncc2)n(C)c1=O | 7 | 313 |
| CC(C)n1c(Sc2cc(Cl)cc(Cl)c2)c(COc2ccncc2)n(C)c1=O | 134 | 608 |
| CC(C)n1c(Sc2cc(Cl)cc(Cl)c2)c(COCc2cccnc2)n(C)c1=O | 5 | 115 |
